The record followed here is patent US8772286B2, “MK2 inhibitors” (Merck Sharp & Dohme B.V., priority 2009, dated 2014).

pEC50: −log10 of the molar value. ≈ marks a conversion by molar mass, not a printed value. Where two headings read alike, the source gives them in different places.

Series [1] in a line: Solubility determination of MK2 inhibitors (kinetic aqueous solubility, UPLC). Conditions: aqueous buffer (system solution from pION inc.), 22 °C, pH 7.4, aqueous buffer, kinetic from dmso stock, pH 7.4, room temperature, about 1% DMSO, 24 h shaking; read-out: solubility. It is filed as physicochemical. Here is the method: The solubility can be determined using the Automated Kinetic Aqueous Solubility (AKASol) method, which is an HPLC-UV based method. The method is derived from the classical saturated shake-flask solubility method which has been adapted to the 96-well microtitre plate format, allowing the use of DMSO stock solutions. The solubility is determined by measuring the amount of compound in a saturated aqueous solution, quantified by an external calibration curve of the compound dissolved in DMSO. The solubility (mg/L) is measured at pH 7.4, at room temperature and the final concentration of DMSO in the sample solution is 1%.
The samples were prepared from 10 mM DMSO stock solutions. For each compound under investigation, a volume (9 μL) of the DMSO stock solution is transferred from the DMSO stock solution into 891 μL of buffer solution (system solution from pION inc.) in a 96 deep well plate, which equates to approximately 1% DMSO, using the Packard Multiprobe II robot liquid handling system. The pH of the buffer is manually adjusted at pH 7.4 by adding NaOH. This procedure is done in duplicate for each sample. After shaking for 24 h on a vortex mixer (Heidolph, Titramax 101) at 450 rpm and at room temperature (21-23° C.), 300 uL of the incubated sample is transferred from the deep well plate to a filter plate (PVDF, 0.45 um) on a vacuum manifold. To the filtrate (150 uL) 1-propanol (50 uL) is added to suppress precipitation and this solution is then analysed by UPLC. The solubility is determined using the calibration line previously prepared.
Preparation of the Standards and Built up of a Calibration Line
The calibration line is built with different concentrations of the test compound (standards), prepared from the same 10 mM DMSO stock solution. A volume (7 uL) from the same DMSO stock solution was diluted with DMSO (273 uL) leading to a solution with concentration of 0.25 mM. From this solution, three different injection volumes (0.2, 1, 1.8 uL) were injected on UPLC. The respective peak areas are plotted against amount of compound to build up the calibration line. The calibration line is used to determine the amount of dissolved compound in each sample, selecting the injection that gave peak areas closest to the peak area range of the calibration standards.

For another series, the target named is T1, MK2 enzyme (Homo sapiens, UniProt P49137).
T1 construct: MK2 enzyme (active enzyme (peptide 46-end (Millipore))); purchased Millipore
T1 sequence (P49137 46-400 limits assumed): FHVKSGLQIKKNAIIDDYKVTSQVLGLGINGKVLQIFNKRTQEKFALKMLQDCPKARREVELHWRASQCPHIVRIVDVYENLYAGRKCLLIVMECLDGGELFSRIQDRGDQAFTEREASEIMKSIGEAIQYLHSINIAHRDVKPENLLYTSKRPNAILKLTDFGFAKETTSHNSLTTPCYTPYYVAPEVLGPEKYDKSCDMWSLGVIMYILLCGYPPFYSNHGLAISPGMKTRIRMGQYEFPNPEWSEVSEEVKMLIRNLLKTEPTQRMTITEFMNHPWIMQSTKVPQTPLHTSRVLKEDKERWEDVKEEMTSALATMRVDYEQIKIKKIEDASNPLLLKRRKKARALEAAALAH
The series can be described thus: MK2 enzyme activity, IMAP fluorescence polarization assay. It is filed as biochemical. To be noted: for EC50: MK2 IMAP assay, 1 μM ATP, 30 min pre-incubation, 2 h room temperature, read-out: pEC50 value (converted). The source says:
In another assay the MK2 kinase activity can be determined by using an IMAP assay (Immobilized Metal Assay for Phosphochemicals—based coupled assay). IMAP is a homogeneous fluorescence polarization (FP) assay based on affinity capture of phosphorylated peptide substrates. IMAP uses fluorescein-labeled peptide substrates that, upon phosphorylation by a protein kinase, bind to so called IMAP nanoparticles, which are derivatized with trivalent metal complexes. […] In such an assay, MK2 phosphorylates a fluorescein-labeled peptide substrate (see example 14).
MK2 enzyme activity is measured using the IMAP (immobilized metal ion affinity-based fluorescence polarization) assay as outlined below.
The enzyme is diluted to 100 U/mL the day before use in KR buffer (10 mM Tris-HCl, 10 mM MgCl2, 0.01% Tween-20, 0.05% NaN3, 2 mM DTT, pH 7.2) and stored overnight at −20° C.
The dilutions in DMSO are then diluted 50-fold in KR-buffer of which 5 μl is used in the assay, leading to a final compound concentration range in the assay from 10 μM to 0.316 nM.
After 60 min incubation at room temperature in the dark the FP signal is read. Fluorescence at 535 nm is measured using parallel and perpendicular filters to determine differences in rotation due to binding of the phosphorylated substrate peptide to the beads. Values are calculated as percentage of the difference in readout (ΔmPi) of the controls with and without ATP. EC50 values are determined by curve fitting of the experimental results using Activity Base.

As a reminder, the solubility is the dissolved amount per volume that the medium holds. Regarding `O=C1NCC2(CCNCC2)c2[nH]c(-c3ccnc(-c4cnc5ccccc5c4)n3)cc21` [1—21, 2′-(2-(quinolin-3-yl)pyrimidin-4-yl)-5′,6′-dihydrospiro[piperidine-4,7′-pyrrolo[3,2-c]pyridin]-4′(1′H)-one], the solubility at 24 h in series [1] was 20 to 50 µg/mL (≈ 48.7 to 122 µM). The EC50 at MK2 enzyme was 3.16 to 31.6 nM.
As to `CC(C)(C)c1ccc(-c2nccc(-c3cc4c([nH]3)C3(CCNCC3)CNC4=O)n2)cc1` [1—22, 2′-(2-(4-tert-butylphenyl)pyrimidin-4-yl)-5′,6′-dihydrospiro[piperidine-4,7′-pyrrolo[3,2-c]pyridin]-4′(1′H)-one], the solubility at 24 h in series [1] was at least 50 µg/mL. Further, on MK2 enzyme, the EC50 is 3.16 to 31.6 nM.
In the case of `CC(C)Cc1ccc(-c2nccc(-c3cc4c([nH]3)C3(CCNCC3)CNC4=O)n2)cc1` [1—23, 2′-(2-(4-isobutylphenyl)pyrimidin-4-yl)-5′,6′-dihydrospiro[piperidine-4,7′-pyrrolo[3,2-c]pyridin]-4′(1′H)-one], the solubility at 24 h in series [1] is at least 50 µg/mL. In addition, the EC50 at MK2 enzyme is 3.16 to 31.6 nM.
`O=C1NCC2(CCNCC2)c2[nH]c(-c3ccnc(-c4ccc5ccccc5c4)n3)cc21` [1—24, 2′-(2-(naphthalen-2-yl)pyrimidin-4-yl)-5′,6′-dihydrospiro[piperidine-4,7′-pyrrolo[3,2-c]pyridin]-4′(1′H)-one]: the solubility at 24 h in series [1] was at least 50 µg/mL. Besides, the EC50 on MK2 enzyme was 3.16 to 31.6 nM.
In the case of `O=C1NCC2(CCNCC2)c2[nH]c(-c3ccnc(-c4cc(Cl)cc(Cl)c4)n3)cc21` [1—25, 2′-(2-(3,5-dichlorophenyl)pyrimidin-4-yl)-5′,6′-dihydrospiro[piperidine-4,7′-pyrrolo[3,2-c]pyridin]-4′(1′H)-one], in series [1], the solubility at 24 h is at least 50 µg/mL. The EC50 on MK2 enzyme is 3.16 to 31.6 nM.
`O=C1NCC2(CCNCC2)c2[nH]c(-c3ccnc(-c4ccc5oc6ccccc6c5c4)n3)cc21` [1—26, 2′-(2-(dibenzo[b,d]furan-2-yl)pyrimidin-4-yl)-5′,6′-dihydrospiro[piperidine-4,7′-pyrrolo[3,2-c]pyridin]-4′(1′H)-one]: the solubility at 24 h in series [1] was in the range of 20 to 50 µg/mL (≈ 44.5 to 111 µM). The EC50 at MK2 enzyme is 31.6 to 316 nM.
In the case of `CC(C)COc1ccc(-c2nccc(-c3cc4c([nH]3)C3(CCNCC3)CNC4=O)n2)cc1` [1—27, 2′-(2-(4-isobutoxyphenyl)pyrimidin-4-yl)-5′,6′-dihydrospiro[piperidine-4,7′-pyrrolo[3,2-c]pyridin]-4′(1′H)-one], the solubility at 24 h in series [1] is at least 50 µg/mL. The EC50 at MK2 enzyme is 3.16 to 31.6 nM.
For `O=C1NCC2(CCNCC2)c2[nH]c(-c3ccnc(-c4cc5ccccc5s4)n3)cc21` [1—28, 2′-(2-(benzo[b]thiophen-2-yl)pyrimidin-4-yl)-5′,6′-dihydrospiro[piperidine-4,7′-pyrrolo[3,2-c]pyridin]-4′(1′H)-one], the solubility at 24 h in series [1] was at least 50 µg/mL. Besides, the EC50 on MK2 enzyme was 3.16 to 31.6 nM.
`NC(=O)c1cccc(-c2nccc(-c3cc4c([nH]3)C3(CCNCC3)CNC4=O)n2)c1` [1—29, 3-(4-(4′-oxo-1′,4′,5′,6′-tetrahydrospiro[piperidine-4,7′-pyrrolo[3,2-c]pyridine]-2′-yl)pyrimidin-2-yl)benzamide]: in series [1], the solubility at 24 h is at least 50 µg/mL. Further, at MK2 enzyme, the EC50 was 3.16 to 31.6 nM.
Consider `CC(=O)c1cccc(-c2nccc(-c3cc4c([nH]3)C3(CCNCC3)CNC4=O)n2)c1` [1—30, 2′-(2-(3-acetylphenyl)pyrimidin-4-yl)-5′,6′-dihydrospiro[piperidine-4,7′-pyrrolo[3,2-c]pyridin]-4′(1′H)-one], for which, in series [1], the solubility at 24 h is at least 50 µg/mL. In addition, the EC50 at MK2 enzyme is 3.16 to 31.6 nM.
As for `O=C(NC1CCCCC1)c1ccc(-c2nccc(-c3cc4c([nH]3)C3(CCNCC3)CNC4=O)n2)cc1Cl` [1—31, 2-chloro-N-cyclohexyl-4-(4-(4′-oxo-1′,4′,5′,6′-tetrahydrospiro[piperidine-4,7′-pyrrolo[3,2-c]pyridine]-2′-yl)pyrimidin-2-yl)benzamide], the solubility at 24 h in series [1] is at least 50 µg/mL. For the same molecule, the EC50 on MK2 enzyme is 3.16 to 31.6 nM.
The corresponding values for `O=C1NCC2(CCNCC2)c2[nH]c(-c3ccnc(-c4ccc(Cl)cc4F)n3)cc21` [1—32, 2′-(2-(4-chloro-2-fluorophenyl)pyrimidin-4-yl)-5′,6′-dihydrospiro[piperidine-4,7′-pyrrolo[3,2-c]pyridin]-4′(1′H)-one] are at least 50 µg/mL and 3.16 to 31.6 nM.
For the molecule `O=C1NCC2(CCNCC2)c2[nH]c(-c3ccnc(-c4cccc(-c5ccccc5)c4)n3)cc21` [1—33, 2′-(2-(biphenyl-3-yl)pyrimidin-4-yl)-5′,6′-dihydrospiro[piperidine-4,7′-pyrrolo[3,2-c]pyridin]-4′(1′H)-one], the solubility at 24 h in series [1] is at least 50 µg/mL. Further, on MK2 enzyme, the EC50 is 31.6 to 316 nM.
Turning to `O=C1NCC2(CCNCC2)c2[nH]c(-c3ccnc(-c4cc(C(F)(F)F)cc(C(F)(F)F)c4)n3)cc21` [1—34, 2′-(2-(3,5-bis(trifluoromethyl)phenyl)pyrimidin-4-yl)-5′,6′-dihydrospiro[piperidine-4,7′-pyrrolo[3,2-c]pyridin]-4′(1′H)-one], in series [1], the solubility at 24 h is at least 50 µg/mL. The EC50 on MK2 enzyme is 31.6 to 316 nM.
The like results for `O=C1NCC2(CCNCC2)c2[nH]c(-c3ccnc(-c4cccc(C(F)(F)F)c4)n3)cc21` [1—35, 2′-(2-(3-(trifluoromethyl)phenyl)pyrimidin-4-yl)-5′,6′-dihydrospiro[piperidine-4,7′-pyrrolo[3,2-c]pyridin]-4′(1′H)-one] were, in that order, at least 50 µg/mL and 3.16 to 31.6 nM.
With `O=C(NC1CCCCC1)c1ccc(-c2nccc(-c3cc4c([nH]3)C3(CCNCC3)CNC4=O)n2)cc1` [1—36, N-cyclohexyl-4-(4-(4′-oxo-1′,4′,5′,6′-tetrahydrospiro[piperidine-4,7′-pyrrolo[3,2-c]pyridine]-2′-yl)pyrimidin-2-yl)benzamide], the solubility at 24 h in series [1] is at least 50 µg/mL. Also, the EC50 on MK2 enzyme was 3.16 to 31.6 nM.
One may read the pEC50 as −log10 of the EC50, conventionally taken in molar units. High values mean a small EC50, low ones a large EC50. For `CCN1CCC2(CC1)CNC(=O)c1cc(-c3ccnc(-c4cc5ccccc5o4)n3)[nH]c12` [2—2, 2′-(2-(benzofuran-2-yl)pyrimidin-4-yl)-1-ethyl-5′,6′-dihydrospiro[piperidine-4,7′-pyrrolo[3,2-c]pyridin]-4(1′H)-one], in series [1], the solubility at 24 h was at least 50 µg/mL. For the same molecule, the negative-log EC50 (pEC50) on MK2 enzyme is 6.50 to 7.50.
For the molecule `CC(=O)NCCCN1CCC2(CC1)CNC(=O)c1cc(-c3ccnc(-c4cc5ccccc5o4)n3)[nH]c12` [3—2, N-(3-(2′-(2-(benzofuran-2-yl)pyrimidin-4-yl)-4′-oxo-1′,4′,5′,6′-tetrahydrospiro[piperidine-4,7′-pyrrolo[3,2-c]pyridine]-1-yl)propyl)acetamide], the solubility at 24 h in series [1] was at least 50 µg/mL. Besides, the EC50 on MK2 enzyme was 31.6 to 316 nM.
Regarding `O=C1NCC2(CCNCC2)c2[nH]c(-c3nc(-c4ccc5c(c4)OCO5)ncc3F)cc21` [4—2, 2′-(2-(benzo[d][1,3]dioxol-5-yl)-5-fluoropyrimidin-4-yl)-5′,6′-dihydrospiro[piperidine-4,7′-pyrrolo[3,2-c]pyridin]-4′(1′H)-one], in series [1], the solubility at 24 h was 20 to 50 µg/mL (≈ 47.5 to 119 µM). In addition, the EC50 on MK2 enzyme was 3.16 to 31.6 nM.
The like results for `O=C1NCC2(CCNCC2)c2[nH]c(-c3nc(-c4cnc5ccccc5c4)ncc3F)cc21` [4—3, 2′-(5-fluoro-2-(quinolin-3-yl)pyrimidin-4-yl)-5′,6′-dihydrospiro[piperidine-4,7′-pyrrolo[3,2-c]pyridin]-4′(1′H)-one] were, in that order, at least 50 µg/mL and at most 3.16 nM.
